Columns and labels:
cannabinoid receptors = molecular target: T1, cannabinoid receptors (Mus musculus, UniProt P47746); assay: antagonism of hypothermia induced by WIN 55 212-2 in mice; assay type: in vivo
T1 construct: from tissue; host or cells: whole living mouse (in vivo hypothermia test)

rats = assay: test of the central memory in rats (Perio et al.); assay type: in vivo; conditions: subcutaneous administration
[1] = penetration of the blood-brain barrier / central nervous system; assay type: in vivo

T1 sequence (P47746 whole entry): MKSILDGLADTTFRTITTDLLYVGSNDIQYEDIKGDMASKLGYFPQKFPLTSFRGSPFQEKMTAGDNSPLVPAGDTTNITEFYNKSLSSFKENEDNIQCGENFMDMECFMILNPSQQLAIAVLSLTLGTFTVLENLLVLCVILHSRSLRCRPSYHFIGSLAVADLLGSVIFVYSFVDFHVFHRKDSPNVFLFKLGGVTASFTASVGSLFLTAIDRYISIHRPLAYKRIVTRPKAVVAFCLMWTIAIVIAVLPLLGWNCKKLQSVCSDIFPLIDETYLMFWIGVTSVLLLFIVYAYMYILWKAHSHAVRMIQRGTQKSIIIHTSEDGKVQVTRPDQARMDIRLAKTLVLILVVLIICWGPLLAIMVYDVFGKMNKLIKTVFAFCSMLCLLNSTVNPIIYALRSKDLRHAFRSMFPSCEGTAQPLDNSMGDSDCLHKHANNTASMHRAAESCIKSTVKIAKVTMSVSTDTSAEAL

**Q.** With `Cc1c(C(=O)NN2CCCCC2)nn(-c2ccc(Cl)cc2Cl)c1-c1ccc(Cl)cc1` [N-piperidino-5-(4-chlorophenyl)-1-(2,4-dichlorophenyl)-4-methyl-pyrazole-3-carboxamide] as the compound, how does the toxicity (toxicity) read?
**A.** Its toxicity is “compatible with its use as a psychotropic drug”.

**Q.** What about the “duration of action in the hypothermia test” value (cannabinoid receptors; mice, after oral administration of 3 mg/kg) of the same compound?
**A.** The value was 8 to 10 h.

**Q.** And the “ED50, antagonism of WIN 55 212-2 induced hypothermia” value (cannabinoid receptors; mice, i.p.)?
**A.** The value was 0.3 mg/kg.

**Q.** What about the “ED50, antagonism of WIN 55 212-2 induced hypothermia” value (cannabinoid receptors; mice, per os) of the same compound?
**A.** The value was 0.4 mg/kg.

**Q.** What about the “activity upon oral administration” value (cannabinoid receptors; oral) of the same compound?
**A.** The value was “active upon oral administration”.

**Q.** What about the “memory capacities of rats in the test of the central memory” value (rats) of the same compound?
**A.** The value was “improves the memory capacities of rats”.

**Q.** And the “penetration in the central nervous system” value ([1]; confirmed by antagonism of agonist-induced hypothermia)?
**A.** Its value is “good penetration”.

**Q.** What about the “penetration of the blood-brain barrier” value ([1]; in vivo) of the same compound?
**A.** The value was “penetrates the blood-brain barrier”.

Reference: patent US5624941A, “Pyrazole derivatives, method of preparing them and pharmaceutical compositions in which they are present” (Sanofi, priority 1992, dated 1997)
